# Reference: patent publication US11820870B2, “Photocontrolled dynamic covalent linkers for polymer networks” (Northwestern University, priority 2018, dated 2023)
# Columns and labels:
# [1] = Pseudo-first-order reversible esterification with pinacol (LCMS kinetics); type: physicochemical
# Experimental: A small-molecule model compound, azobenzene 1, was first designed, in which the boronic acid was positioned ortho to the azo group (FIG. 5). Irradiation of (E)-1 with 365-nm light provided a 88:12 mixture of Z and E isomers. This mixture was subjected to excess pinacol in acetonitrile-water (1:1 v/v, 25° C.) to determine the apparent rates and equilibrium constants of boronic acid (1) esterification and boronic ester (2) hydrolysis for each isomer. While other 1,2- and 1,3-diols were hydrolyzed too quickly to be studied, the unusually slow rate of pinacol hydrolysis allowed the E and Z isomers to be resolved and their reaction kinetics to be monitored by high-performance liquid chromatography (HPLC; see Supporting Information (SI) for details).
# After 8 hours, the reactions had reached equilibrium, with 39% conversion of (Z)-1 to (Z)-2 and only 9% conversion of (E)-1 to (E)-2 (FIG. 6A). Using a reversible pseudo-first-order kinetic model, it was determined that the esterification of (Z)-1 was 2.1 times faster than the esterification of (E)-1 (k1) (FIG. 6B, Table 1). The rates of hydrolysis could also be extracted from this model: (E)-2 underwent hydrolysis 2.0 times faster than (Z)-2 did (k−1). These apparent rate constants for hydrolysis were verified by hydrolyzing a mixture of (E)-2 and (Z)-2 under irreversible pseudo-first-order conditions (FIGS. 6C and 6D). Taken together, the apparent equilibrium to form boronic ester from boronic acid and pinacol is 4.3 times more favorable for the Z isomer relative to the E isomer. While convenient for small-molecule kinetic studies, the rate of pinacol ester formation is too slow to be practical for gelation. Thus, a less sterically hindered diol was used for hydrogel studies.
# Stock solutions of (E)-1 or (E)-2 were prepared in acetonitrile at 800 μM. Serial dilutions were performed to obtain a final concentration of 12.5 μM. The solutions were directly injected onto the LCMS (Poroshell 120 column, EC-C18, 2.7 μm, 2.1×50 mm). Runs were ten minutes long with solvent gradient from 50:50 to 100:0 ACN:H2O in the first three minutes. Detection was performed at 254 nm with a variable-wavelength detector. The peak area for each concentration was recorded. A calibration curve was created. […] The concentration of the Z-isomer can be calculated from the known concentration of the E-isomer (based on the previously-generated calibration curve).
# 500 μL of a stock solution of 800 μM of (E)-1 was diluted with 500 μL of 80 mM of pinacol in DI water. The concentrations of (E)-1 and (E)-2 were monitored as a function of time using the above LCMS method. The observed rate constants of esterification (k1(E)) and hydrolysis (k−1(E)) were determined using the derivation shown below.
# The data from the concentrations vs. time experiments was fit to the linear expression (1) for a reversible first order reaction and yields the slope denoted as equation (4). […] With the apparent equilibrium constant and slope known, the rates of hydrolysis can be determined with equation (5), and subsequently the rate of esterification can be determined.
# 500 μL of a stock solution of 800 μM of (E)-1 was irradiated with a 365 nm flashlight for 10 minutes to produce a mixture of (E)-1 and (Z)-1. The mixture was then diluted with 500 μL of a 80 mM pinacol solution in DI water, and the concentrations of (E)-2 and (Z)-2 were monitored as a function of time using the above LCMS method. […]
# [2] = Pseudo-first-order irreversible hydrolysis of boronic ester (LCMS kinetics); type: physicochemical; conditions: obtained from the irreversible hydrolysis experiments; 1:1 ACN:H2O; average of three experiments
# Experimental: After 8 hours, the reactions had reached equilibrium, with 39% conversion of (Z)-1 to (Z)-2 and only 9% conversion of (E)-1 to (E)-2 (FIG. 6A). Using a reversible pseudo-first-order kinetic model, it was determined that the esterification of (Z)-1 was 2.1 times faster than the esterification of (E)-1 (k1) (FIG. 6B, Table 1). The rates of hydrolysis could also be extracted from this model: (E)-2 underwent hydrolysis 2.0 times faster than (Z)-2 did (k−1). These apparent rate constants for hydrolysis were verified by hydrolyzing a mixture of (E)-2 and (Z)-2 under irreversible pseudo-first-order conditions (FIGS. 6C and 6D). […]
# Stock solutions of (E)-1 or (E)-2 were prepared in acetonitrile at 800 μM. […] The peak area for each concentration was recorded. […] The concentration of the Z-isomer can be calculated from the known concentration of the E-isomer (based on the previously-generated calibration curve).
# 500 μL of a stock solution of 800 μM of (E)-2 was irradiated with a 365 nm flashlight for 10 minutes to produce a mixture of (E)-2 and (Z)-2. The mixture was then diluted with 500 μL of DI H2O and the concentration of (E)-2 and (Z)-2 was monitored as a function of time. The observed rate constants of hydrolysis k−1(E) and k−1(Z) were determined using the derivation shown below. […]
# [3] = reversible esterification, 400 μM with 40 mM pinacol, 1:1 ACN:H2O, 25° C., average of three experiments
smiles,measurement,setting,value
"COC(=O)c1ccc(/N=N/c2ccccc2B(O)O)cc1 [(E)-1, (E)-(2-((4-(methoxycarbonyl)phenyl)diazinyl)phenyl)boronic acid]",conversion of boronic acid to boronic ester at equilibrium,"[1]; after 8 hours, excess pinacol, acetonitrile-water 1:1 v/v, 25° C.",9%
same,Keq [a] apparent equilibrium constant,[1]; [3],0.090 ± 0.016
same,k1 [a] apparent rate constant of esterification,[1]; [3],2.56 ± 0.28 × 10^−5 s^−1
"COC(=O)c1ccc(/N=N/c2ccccc2B2OC(C)(C)C(C)(C)O2)cc1 [(E)-2, Methyl (E)-4-((2-(4,4,5,5-tetramethyl-1,3,2,-dioxaborolan-2-yl)phenyl)diazinyl)benzoate]",k−1 [b] apparent rate constant of hydrolysis,[2],2.83 ± 0.06 × 10^−4 s^−1
same,k−1 [a] apparent rate constant of hydrolysis,"[1]; obtained from the reversible esterification experiment, 1:1 ACN:H2O, average of three experiments",2.76 ± 0.32 × 10^−4 s^−1
same,"hydrolysis rate (k−1), times faster than (Z)-2",[1]; ratio E isomer to Z isomer,2.0 times
